#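 48-hour exposure; five concentrations; linearly interpolated endpoints. At the GI50, growth is halved. Definition used: TGI = concentration required for complete inhibition of growth.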
# How the values were obtained:
# Assay in all cases: growth of human tumour cells (NCI), 48 h
# COLO 205 colon = system: COLO 205 colon
# RXF 393 renal = system: RXF 393 renal
# MDA-MB-435 = system: MDA-MB-435
# HCC-2998 colon = system: HCC-2998 colon
# SF-539 CNS = system: SF-539 CNS
# SK-MEL-2 melanoma = system: SK-MEL-2 melanoma
# NCI-H460 lung = system: NCI-H460 lung
# SNB-75 CNS = system: SNB-75 CNS
# EKVX NSCLC = system: EKVX NSCLC
# RPMI-8226 leukemia = system: RPMI-8226 leukemia
# A549 NSCLC = system: A549 NSCLC
# IGROV1 ovarian = system: IGROV1 ovarian
# DU-145 prostate = system: DU-145 prostate
# MALME-3M melanoma = system: MALME-3M melanoma
# OVCAR-4 ovarian = system: OVCAR-4 ovarian
# SW-620 colon = system: SW-620 colon
# NCI-H23 lung = system: NCI-H23 lung
# NCI/ADR-RES ovarian = system: NCI/ADR-RES ovarian
# KM12 colon = system: KM12 colon
# MCF7 breast = system: MCF7 breast
# CAKI-1 renal = system: CAKI-1 renal
# SNB-19 CNS = system: SNB-19 CNS
# A498 renal = system: A498 renal
# HL-60(TB) leukemia = system: HL-60(TB) leukemia
# PC-3 prostate = system: PC-3 prostate
# U251 CNS = system: U251 CNS
# NCI-H226 lung = system: NCI-H226 lung
# K-562 leukemia = system: K-562 leukemia
# HOP-92 NSCLC = system: HOP-92 NSCLC
# HCT-116 colon = system: HCT-116 colon
# UO-31 renal = system: UO-31 renal
# TK-10 renal = system: TK-10 renal
# UACC-257 melanoma = system: UACC-257 melanoma
# HOP-62 NSCLC = system: HOP-62 NSCLC
# SR leukemia = system: SR leukemia
# T-47D breast = system: T-47D breast
# SK-MEL-5 melanoma = system: SK-MEL-5 melanoma
# SN12C renal = system: SN12C renal
# MDA-MB-231 breast = system: MDA-MB-231 breast
# SK-MEL-28 melanoma = system: SK-MEL-28 melanoma
# NCI-H522 lung = system: NCI-H522 lung
# OVCAR-5 ovarian = system: OVCAR-5 ovarian
# SF-295 CNS = system: SF-295 CNS
# M14 melanoma = system: M14 melanoma
# OVCAR-3 ovarian = system: OVCAR-3 ovarian
# SF-268 CNS = system: SF-268 CNS
# OVCAR-8 ovarian = system: OVCAR-8 ovarian
# CCRF-CEM leukemia = system: CCRF-CEM leukemia
# MOLT-4 leukemia = system: MOLT-4 leukemia
# HCT-15 colon = system: HCT-15 colon
structure (smiles),measurement,setting,value
C#C[C@]1(O)CC[C@H]2[C@@H]3CC=C4c5sc(-c6ccc(O)c(O)c6)nc5CC[C@]4(C)[C@H]3CC[C@@]21C,GI50,COLO 205 colon,2.42 µM
same,TGI,COLO 205 colon,5.81 µM
same,GI50,RXF 393 renal,0.157 µM
same,TGI,RXF 393 renal,0.658 µM
same,GI50,MDA-MB-435,3.11 µM
same,TGI,MDA-MB-435,13.2 µM
same,GI50,HCC-2998 colon,3.67 µM
same,TGI,HCC-2998 colon,14.7 µM
same,GI50,SF-539 CNS,0.333 µM
same,TGI,SF-539 CNS,1.67 µM
same,GI50,SK-MEL-2 melanoma,2.93 µM
same,TGI,SK-MEL-2 melanoma,12 µM
same,GI50,NCI-H460 lung,3.13 µM
same,TGI,NCI-H460 lung,30.8 µM
same,GI50,SNB-75 CNS,0.339 µM
same,TGI,SNB-75 CNS,9.95 µM
same,GI50,EKVX NSCLC,2.14 µM
same,TGI,EKVX NSCLC,55 µM
same,GI50,RPMI-8226 leukemia,0.348 µM
same,TGI,RPMI-8226 leukemia,> 100 µM
same,GI50,A549 NSCLC,3.33 µM
same,TGI,A549 NSCLC,> 100 µM
same,GI50,IGROV1 ovarian,4.18 µM
same,TGI,IGROV1 ovarian,> 100 µM
same,GI50,DU-145 prostate,3.03 µM
same,TGI,DU-145 prostate,> 100 µM
same,GI50,MALME-3M melanoma,1.63 µM
same,TGI,MALME-3M melanoma,4.8 µM
same,GI50,OVCAR-4 ovarian,3.55 µM
same,TGI,OVCAR-4 ovarian,> 100 µM
same,GI50,SW-620 colon,2.64 µM
same,TGI,SW-620 colon,> 100 µM
same,GI50,NCI-H23 lung,2.76 µM
same,TGI,NCI-H23 lung,> 100 µM
same,GI50,NCI/ADR-RES ovarian,2.81 µM
same,TGI,NCI/ADR-RES ovarian,> 100 µM
same,GI50,KM12 colon,2.97 µM
same,TGI,KM12 colon,55 µM
same,GI50,MCF7 breast,1.09 µM
same,TGI,MCF7 breast,6.06 µM
same,GI50,CAKI-1 renal,2.98 µM
same,TGI,CAKI-1 renal,15.1 µM
same,GI50,SNB-19 CNS,2.09 µM
same,TGI,SNB-19 CNS,22.1 µM
same,GI50,A498 renal,1.76 µM
same,TGI,A498 renal,4.23 µM
same,GI50,HL-60(TB) leukemia,1.77 µM
same,TGI,HL-60(TB) leukemia,> 100 µM
same,GI50,PC-3 prostate,0.833 µM
same,TGI,PC-3 prostate,> 100 µM
same,GI50,U251 CNS,0.68 µM
same,TGI,U251 CNS,4.42 µM
same,GI50,NCI-H226 lung,2.22 µM
same,TGI,NCI-H226 lung,> 100 µM
same,GI50,K-562 leukemia,1.21 µM
same,TGI,K-562 leukemia,> 100 µM
same,GI50,HOP-92 NSCLC,3.78 µM
same,TGI,HOP-92 NSCLC,> 100 µM
same,GI50,HCT-116 colon,1.23 µM
same,TGI,HCT-116 colon,2.87 µM
same,GI50,UO-31 renal,1.43 µM
same,TGI,UO-31 renal,12.9 µM
same,GI50,TK-10 renal,9.21 µM
same,TGI,TK-10 renal,> 100 µM
same,GI50,UACC-257 melanoma,2 µM
same,TGI,UACC-257 melanoma,5.91 µM
same,GI50,HOP-62 NSCLC,3.91 µM
same,TGI,HOP-62 NSCLC,> 100 µM
same,GI50,SR leukemia,0.659 µM
same,TGI,SR leukemia,> 100 µM
same,GI50,T-47D breast,3.27 µM
same,TGI,T-47D breast,44.7 µM
same,GI50,SK-MEL-5 melanoma,2.13 µM
same,TGI,SK-MEL-5 melanoma,5.15 µM
same,GI50,SN12C renal,3.03 µM
same,TGI,SN12C renal,> 100 µM
same,GI50,MDA-MB-231 breast,2.97 µM
same,TGI,MDA-MB-231 breast,> 100 µM
same,GI50,SK-MEL-28 melanoma,1.39 µM
same,TGI,SK-MEL-28 melanoma,4.19 µM
same,GI50,NCI-H522 lung,1.69 µM
same,TGI,NCI-H522 lung,3.64 µM
same,GI50,OVCAR-5 ovarian,3.04 µM
same,TGI,OVCAR-5 ovarian,> 100 µM
same,GI50,SF-295 CNS,0.303 µM
same,TGI,SF-295 CNS,1.22 µM
same,GI50,M14 melanoma,2.09 µM
same,TGI,M14 melanoma,5.87 µM
same,GI50,OVCAR-3 ovarian,2.92 µM
same,TGI,OVCAR-3 ovarian,16 µM
same,GI50,SF-268 CNS,2.47 µM
same,TGI,SF-268 CNS,> 100 µM
same,GI50,OVCAR-8 ovarian,3.3 µM
same,TGI,OVCAR-8 ovarian,14.5 µM
same,GI50,CCRF-CEM leukemia,0.764 µM
same,TGI,CCRF-CEM leukemia,> 100 µM
same,GI50,MOLT-4 leukemia,0.435 µM
same,TGI,MOLT-4 leukemia,> 100 µM
same,GI50,HCT-15 colon,1.26 µM
same,TGI,HCT-15 colon,4.25 µM

# Source: PubChem BioAssay (NCI)
